Numbered stars: 1 amine (or outer) side, 2 acyl side, 3 side chain; on linkers, the order of the positions; unused ones are H or OH. Square brackets hold non-standard residues; d marks the D form. Side chains are listed from the residue outwards. Peptide text beside a SMILES is read from it. * marks the point of attachment. C20 diacid = O=C(O)CCCCCCCCCCCCCCCCCCC(=O)*; αMePhe(2-F) = C[C@](N)(Cc1ccccc1F)C(=O)O; γGlu = O=C(O)[C@H](CCC(=O)[*:2])N[*:1]; Desaminotyrosyl = O=C(CCc1ccc(O)cc1)*; αMeY = C[C@](N)(Cc1ccc(O)cc1)C(=O)O; αMeF = C[C@](N)(Cc1ccccc1)C(=O)O; αMeL = CC(C)C[C@](C)(N)C(=O)O; AEEA = NCCOCCOCC(=O)O; Aib = CC(C)(N)C(=O)O
Key:
human Gcg receptor = target: T1, human Gcg receptor (Homo sapiens, UniProt P47871); assay: [125I]-Glucagon binding (SPA), human Gcg receptor; conditions: read-out: hGLcgR Ki, nM (SEM, n)
T1 construct: expressed in transfected cells; crude membranes
How it was run: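 Scintillation counts are taken after membranes and WGA beads incubate and settle for 12 hours at room temperature. Buffer is 25 mM HEPES, pH 7.4, with CaCl2, MgCl2, bacitracin and Tween-20. Ki values, from four-parameter IC50 fits, are geometric means over independent days.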

human GLP-1R = human GLP-1R (Homo sapiens, UniProt P43220); assay: [125I]-GLP-1 binding (SPA), human GLP-1 receptor; design: expressed in transfected cells; crude membranes; conditions: read-out: hGLP1R Ki, (nM) (SEM, n)
How it was run: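 Membranes: hypotonic lysis (50 mM Tris HCl, pH 7.5, protease inhibitors), Potter-Elvehjem homogenization, high-speed pellet (35000×g 1 h or 25000×g 30 min, 4° C.). Buffer: 25 mM HEPES pH 7.4, 2.5 mM CaCl2, 1 mM MgCl2. Four-parameter IC50 fit; Ki as geometric mean ± SEM.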

[1] = target: T2, gastric inhibitory peptide receptor (GIPR) (Homo sapiens, UniProt P48546); assay: cAMP pharmacological functional assay in presence of casein, hGIPR; format: cell-based; conditions: HEK293 cells expressing hGIPR, 0.1% Casein, geometric mean; read-out: hGIPR cAMP Rel EC50 nM (SEM, n)
T2 sequence (P48546 22-466): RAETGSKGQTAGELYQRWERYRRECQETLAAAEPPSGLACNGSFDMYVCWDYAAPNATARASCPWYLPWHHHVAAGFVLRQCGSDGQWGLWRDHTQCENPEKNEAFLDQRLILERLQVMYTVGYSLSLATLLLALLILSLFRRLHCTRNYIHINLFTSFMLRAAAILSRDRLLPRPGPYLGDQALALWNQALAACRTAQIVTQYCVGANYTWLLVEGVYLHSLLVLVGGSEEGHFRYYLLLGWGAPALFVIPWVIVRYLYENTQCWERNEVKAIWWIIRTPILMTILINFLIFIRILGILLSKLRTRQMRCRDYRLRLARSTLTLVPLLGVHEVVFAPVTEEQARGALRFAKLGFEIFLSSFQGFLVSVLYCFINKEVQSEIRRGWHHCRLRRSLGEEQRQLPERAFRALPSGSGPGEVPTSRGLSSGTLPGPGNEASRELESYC

human GIP receptor = target: T3, human GIP receptor (Homo sapiens, UniProt P48546); assay: [125I]-GIP binding (SPA), human GIP receptor; conditions: read-out: hGIPR Ki, nM (SEM, n)
T3 construct: expressed in transfected cells; crude membranes
T3 sequence (P48546 22-466): T2 sequence (P48546 22-466)

[2] = target: human GLP-1 receptor (GLP-1R) (Homo sapiens, UniProt P43220); assay: cAMP pharmacological functional assay in presence of casein, hGLP-1R; format: cell-based; conditions: HEK293 cells expressing hGLP-1R, 0.1% Casein, geometric mean; read-out: hGLP1R cAMP Rel EC50 nM (SEM, n)
Chain of human GLP-1 receptor (GLP-1R) (P43220 24-463): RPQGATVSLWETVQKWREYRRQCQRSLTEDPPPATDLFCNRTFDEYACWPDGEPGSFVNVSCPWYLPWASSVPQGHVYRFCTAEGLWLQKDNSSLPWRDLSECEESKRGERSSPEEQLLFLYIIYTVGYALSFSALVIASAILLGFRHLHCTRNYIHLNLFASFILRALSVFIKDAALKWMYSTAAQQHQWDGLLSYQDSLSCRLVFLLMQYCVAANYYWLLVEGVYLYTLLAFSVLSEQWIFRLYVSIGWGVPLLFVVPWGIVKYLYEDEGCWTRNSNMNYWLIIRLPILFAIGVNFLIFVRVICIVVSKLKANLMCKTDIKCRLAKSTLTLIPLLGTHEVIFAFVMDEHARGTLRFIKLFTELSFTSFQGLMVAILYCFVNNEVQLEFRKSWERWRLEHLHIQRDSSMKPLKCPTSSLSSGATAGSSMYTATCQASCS

T1 sequence (P47871 26-477): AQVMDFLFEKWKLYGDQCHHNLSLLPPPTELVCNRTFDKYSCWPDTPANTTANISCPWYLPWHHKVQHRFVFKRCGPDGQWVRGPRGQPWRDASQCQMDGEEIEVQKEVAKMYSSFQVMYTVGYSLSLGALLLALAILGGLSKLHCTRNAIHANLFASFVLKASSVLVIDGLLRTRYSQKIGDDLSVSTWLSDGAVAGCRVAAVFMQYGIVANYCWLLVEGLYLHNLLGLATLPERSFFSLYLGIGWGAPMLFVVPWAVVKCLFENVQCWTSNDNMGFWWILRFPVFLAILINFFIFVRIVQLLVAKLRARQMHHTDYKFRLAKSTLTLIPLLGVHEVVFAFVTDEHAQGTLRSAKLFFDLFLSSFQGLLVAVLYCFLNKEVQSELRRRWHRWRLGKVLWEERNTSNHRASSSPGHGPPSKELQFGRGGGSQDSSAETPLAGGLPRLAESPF
Chain of human GLP-1R (P43220 24-463): as the sequence (P43220 24-463) above

SMILES	Ki (human Gcg receptor)	Ki (human GLP-1R)	EC50 [1]	Ki (human GIP receptor)	EC50 [2]
CC[C@H](C)[C@H](NC(=O)[C@H](CC(C)C)NC(=O)[C@H](Cc1ccc(O)cc1)NC(=O)[C@H](CCC(=O)O)NC(=O)[C@@H](NC(=O)[C@H](Cc1ccccc1)NC(=O)[C@H](C)NC(=O)C(C)(C)NC(=O)[C@H](CCC(N)=O)NC(=O)[C@H](C)NC(=O)[C@H](CCCCNC(=O)COCCOCCNC(=O)COCCOCCNC(=O)CC[C@H](NC(=O)CCCCCCCCCCCCCCCCCCC(=O)O)C(=O)O)NC(=O)[C@H](CCCCN)NC(=O)[C@H](CC(=O)O)NC(=O)[C@H](CC(C)C)NC(=O)[C@H](CC(C)C)NC(=O)[C@@H](NC(=O)[C@H](CO)NC(=O)[C@H](Cc1ccc(O)cc1)NC(=O)[C@H](CC(=O)O)NC(=O)[C@H](CO)NC(=O)[C@@H](NC(=O)[C@H](Cc1ccccc1)NC(=O)[C@@H](NC(=O)CNC(=O)[C@H](CCC(=O)O)NC(=O)C(C)(C)NC(=O)CCc1ccc(O)cc1)[C@@H](C)O)[C@@H](C)O)[C@@H](C)CC)[C@@H](C)CC)C(=O)N[C@@H](CCC(=O)O)C(=O)NCC(=O)NCC(=O)N1CCC[C@H]1C(=O)N[C@@H](CO)C(=O)N[C@@H](CO)C(=O)NCC(=O)N[C@@H](C)C(=O)N1CCC[C@H]1C(=O)N1CCC[C@H]1C(=O)N1CCC[C@H]1C(=O)N[C@@H](CO)C(N)=O [Example 107] (Desaminotyrosyl-[Aib]EGTFTSDYSILLDKK([AEEA-AEEA-γGlu-C20 diacid])AQ[Aib]AFIEYLIEGGPSSGAPPPS-NH2)	303 nM	0.867 nM	0.241 nM	0.0425 nM	0.0539 nM
CC[C@H](C)[C@H](NC(=O)[C@H](CC(C)C)NC(=O)C(C)(Cc1ccc(O)cc1)NC(=O)[C@@H](CCC(=O)O)NC(=O)[C@@H](NC(=O)[C@H](Cc1ccccc1)NC(=O)[C@H](C)NC(=O)C(C)(C)NC(=O)[C@H](CCC(N)=O)NC(=O)[C@H](C)NC(=O)[C@H](CCCCNC(=O)COCCOCCNC(=O)COCCOCCNC(=O)[C@@H](N)CCCCNC(=O)CCCCCCCCCCCCCCCCCCC(=O)O)NC(=O)[C@H](CCCN)NC(=O)[C@H](CC(=O)O)NC(=O)[C@H](CC(C)C)NC(=O)C(C)(CC(C)C)NC(=O)[C@@H](NC(=O)[C@H](CO)NC(=O)[C@H](Cc1ccncc1)NC(=O)[C@H](CC(=O)O)NC(=O)[C@H](CO)NC(=O)[C@@H](NC(=O)C(C)(Cc1ccccc1F)NC(=O)[C@@H](NC(=O)CNC(=O)[C@H](CCC(=O)O)NC(=O)C(C)(C)NC(=O)[C@@H](N)Cc1ccc(O)cc1)[C@@H](C)O)[C@@H](C)O)[C@@H](C)CC)[C@@H](C)CC)C(=O)N[C@@H](CCC(=O)O)C(=O)NCC(=O)NCC(=O)N1CCC[C@H]1C(=O)N[C@@H](CO)C(=O)N[C@@H](CO)C(=O)NCC(=O)N[C@@H](C)C(=O)N1CCC[C@H]1C(=O)N1CCC[C@H]1C(=O)N1CCC[C@H]1C(=O)N[C@@H](CO)C(N)=O (stereo partly shown) [Example 251]	21.2 nM	1.09 nM	0.0292 nM	0.0249 nM	0.081 nM
CC[C@H](C)[C@H](NC(=O)[C@H](CC(C)C)NC(=O)[C@H](Cc1ccc(O)cc1)NC(=O)[C@H](CCC(=O)O)NC(=O)[C@@H](NC(=O)[C@](C)(Cc1ccccc1)NC(=O)[C@H](C)NC(=O)C(C)(C)NC(=O)[C@H](CCC(N)=O)NC(=O)[C@H](C)NC(=O)[C@H](CCCCNC(=O)COCCOCCNC(=O)COCCOCCNC(=O)CC[C@H](NC(=O)CCCCCCCCCCCCCCCCCCC(=O)O)C(=O)O)NC(=O)[C@H](CCCCN)NC(=O)[C@H](CC(=O)O)NC(=O)[C@H](CC(C)C)NC(=O)[C@](C)(CC(C)C)NC(=O)[C@@H](NC(=O)[C@H](CO)NC(=O)[C@H](Cc1ccc(O)cc1)NC(=O)[C@H](CC(=O)O)NC(=O)[C@H](CO)NC(=O)[C@@H](NC(=O)[C@H](Cc1ccccc1)NC(=O)[C@@H](NC(=O)CNC(=O)[C@H](CCC(=O)O)NC(=O)C(C)(C)NC(=O)[C@@H](N)Cc1ccc(O)cc1)[C@@H](C)O)[C@@H](C)O)[C@@H](C)CC)[C@@H](C)CC)C(=O)N[C@@H](CCC(=O)O)C(=O)NCC(=O)NCC(=O)N1CCC[C@H]1C(=O)N[C@@H](CO)C(=O)N[C@@H](CO)C(=O)NCC(=O)N[C@@H](C)C(=O)N1CCC[C@H]1C(=O)N1CCC[C@H]1C(=O)N1CCC[C@H]1C(=O)N[C@@H](CO)C(N)=O [Example 74]	69.8 nM	5.99 nM	0.0866 nM	0.0279 nM	0.467 nM
CC[C@H](C)[C@H](NC(=O)[C@H](CC(C)C)NC(=O)[C@H](Cc1ccc(O)cc1)NC(=O)[C@H](CCC(=O)O)NC(=O)[C@@H](NC(=O)[C@H](Cc1ccccc1)NC(=O)[C@H](CC(=O)O)NC(=O)C(C)(C)NC(=O)[C@H](CCC(N)=O)NC(=O)[C@H](C)NC(=O)[C@H](CCCCNC(=O)COCCOCCNC(=O)COCCOCCNC(=O)CC[C@H](NC(=O)CCCCCCCCCCCCCCCCCCC(=O)O)C(=O)O)NC(=O)[C@H](CCCCN)NC(=O)[C@H](CC(=O)O)NC(=O)[C@H](CC(C)C)NC(=O)[C@](C)(CC(C)C)NC(=O)[C@@H](NC(=O)[C@H](CO)NC(=O)[C@H](Cc1ccc(O)cc1)NC(=O)[C@H](CC(=O)O)NC(=O)[C@H](CO)NC(=O)[C@@H](NC(=O)[C@](C)(Cc1ccccc1)NC(=O)[C@@H](NC(=O)CNC(=O)[C@H](CCC(=O)O)NC(=O)C(C)(C)NC(=O)[C@@H](N)Cc1ccc(O)cc1)[C@@H](C)O)[C@@H](C)O)[C@@H](C)CC)[C@@H](C)CC)C(=O)N[C@@H](CCC(=O)O)C(=O)NCC(=O)NCC(=O)N1CCC[C@H]1C(=O)N[C@@H](CO)C(=O)N[C@@H](CO)C(=O)NCC(=O)N[C@@H](C)C(=O)N1CCC[C@H]1C(=O)N1CCC[C@H]1C(=O)N1CCC[C@H]1C(=O)N[C@@H](CO)C(N)=O [Example 140] (H-Y[Aib]EGT[αMeF]TSDYSI[αMeL]LDKK([AEEA-AEEA-γGlu-C20 diacid])AQ[Aib]DFIEYLIEGGPSSGAPPPS-NH2)	175 nM	1.46 nM	0.0349 nM	0.0474 nM	0.0424 nM
CC[C@H](C)[C@H](NC(=O)[C@H](CC(C)C)NC(=O)[C@](C)(Cc1ccc(O)cc1)NC(=O)[C@@H](CCC(=O)O)NC(=O)[C@@H](NC(=O)[C@H](Cc1ccccc1)NC(=O)[C@H](CCC(=O)O)NC(=O)C(C)(C)NC(=O)[C@H](CCC(N)=O)NC(=O)[C@H](C)NC(=O)[C@H](CCCCNC(=O)COCCOCCNC(=O)COCCOCCNC(=O)CC[C@H](NC(=O)CCCCCCCCCCCCCCCCCCC(=O)O)C(=O)O)NC(=O)[C@H](CCC(=O)O)NC(=O)[C@H](CC(=O)O)NC(=O)[C@H](CC(C)C)NC(=O)[C@](C)(CC(C)C)NC(=O)[C@@H](NC(=O)[C@H](CO)NC(=O)[C@H](Cc1ccc(O)cc1)NC(=O)[C@H](CC(=O)O)NC(=O)[C@H](CO)NC(=O)[C@@H](NC(=O)[C@](C)(Cc1ccccc1F)NC(=O)[C@@H](NC(=O)CNC(=O)[C@H](CCC(=O)O)NC(=O)C(C)(C)NC(=O)[C@@H](N)Cc1ccc(O)cc1)[C@@H](C)O)[C@@H](C)O)[C@@H](C)CC)[C@@H](C)CC)C(=O)N[C@@H](CCC(=O)O)C(=O)NCC(=O)NCC(=O)N1CCC[C@H]1C(=O)N[C@@H](CO)C(=O)N[C@@H](CO)C(=O)NCC(=O)N[C@@H](C)C(=O)N1CCC[C@H]1C(=O)N1CCC[C@H]1C(=O)N1CCC[C@H]1C(=O)N[C@@H](CO)C(N)=O [Example 222] (H-Y[Aib]EGT[αMePhe(2-F)]TSDYSI[αMeL]LDEK([AEEA-AEEA-γGlu-C20 diacid])AQ[Aib]EFI[dE][αMeY]LIEGGPSSGAPPPS-NH2; N-terminus assumed)	71.3 nM	3.59 nM	0.0306 nM	0.0495 nM	0.0248 nM
